Molecular target: T1, COX-2
T1 construct: gene PTGS2; COX Activity Assay Kit (Cayman); species inferred from usual Cayman COX-2 (human recombinant; ovine possible); docking used PDB 3LN1
Test: COX peroxidase activity kit, TMPD oxidation at […] nm
Assay type: biochemical
Details: DMSO; triplicate

IC50: 300 nM
SMILES: O=C(C[C@H](O)C1(c2cccc(O)c2O)Oc2cccc3cccc(c23)O1)OC[C@H](O)CO [compound 1, (8S)-(22R)-2,3-dihydroxypropyl-3-(2-(2,3-dihydroxyphenyl)naphtho[1,8-de][1,3]dioxin-2-yl)-3-hydroxypropanoate]

Reference: publication PMC8619024, “COX Inhibitory and Cytotoxic Naphthoketal-Bearing Polyketides from Sparticola junci” (International Journal of Molecular Sciences, 2021)
